What was measured:
[1] = tested on: serum PICP, serum BSAP, urinary NTX, urinary free deoxypyridinoline; experiment: Example 5 study GHAJ: biochemical markers of bone formation and resorption in men; assay type: in vivo, human; settings: for serum PICP peak concentration above baseline: Month 1
Procedure: (§1) Four hundred thirty seven men with primary osteoporosis were enrolled in the study. Approximately one-third of die patients were randomly assigned to LY333334 40 μg/day plus calcium and vitamin D, one-third of the patients were randomly assigned to LY333334 20 μg/day plus calcium and vitamin D, and one-third of the patients were randomly assigned to placebo plus calcium and vitamin D. • Number of Subjects: • PTH: Male 437, Female 0, Total 437; • LY333334 20 μg: Male: Total 151. • LY333334 40 μg: Male: Total 139. • Placebo: Male: Total 147. • Diagnosis and Inclusion Criteria: The study patients were men with primary osteoporosis, aged 30 to 85 years, inclusive. L-2 to L-4 vertebrae must have been intact without artifacts, crush fracture or other abnormalities which would have interfered with the analysis of the posterior-anterior lumbar spine bone mineral density (BMD) measurement which must have been at least 2.0 SD below that of young, healthy men. […] Patient Demographic and Other Baseline Characteristics

PICP, BSAP, NTX, DPD = experiment: Example 4 population pharmacodynamic models of biochemical markers (PICP, BSAP, NTX, DPD); assay type: in vivo, human
Description: Population pharmacodynamic models were developed individually for total lumber spine BMD, femoral neck BMD, procollagen 1 carboxy-terminal propeptide (PICP), bone specific alkaline phosphate (BSAP), urinary N-telopeptide (NTX), and urinary free deoxypyridinoline (DPD). These treatment-response models characterized change in the pharmacodynamic endpoints and identified significant patient factors influencing response to therapy.
The time course of biochemical marker response to LY333334 dose was extensively evaluated as part of the overall population pharmacodynamic analyses. Pharmacodynamic models were developed for four biochemical markers: PICP and BSAP (biochemical measures of bone formation); NTX and […] (biochemical measures of bone resorption). Patient-specific factors that explained some of the variability of each model were identified and included in the model. As an additional evaluation, the relationship between LY333334 exposure and PICP response was modeled. Finally, the biochemical markers were evaluated as potential indicators of response to therapy by modeling the relationship between a change in the biochemical endpoint after 1 month of treatment and the increase in spine and femoral neck BMD after 21 months of treatment. […] Additional patient-specific factors were identified, which further decreased the variability in this predictive model.
An extensive investigation was undertaken to evaluate the time course of biochemical markers of bone formation (PICP and BSAP) and resorption (NTX and DPD) during LY333334 therapy. The population pharmacodynamic evaluation of these biochemical markers included data from approximately 340 patients randomly assigned to receive LY333334 40 μg/day (n≅170) or LY333334 20 μg/day (n≅170). […] Pharmacodynamic models based on linear, exponential, and spline functions of time were evaluated. […] These models reflect the complex time course of change in the underlying processes of bone formation and bone resorption occurring throughout the skeleton in response to the anabolic action induced by LY333334.

[2] = tested on: men with primary osteoporosis; experiment: Example 5 study GHAJ: incident nonvertebral fractures; assay type: in vivo, human
Procedure: as §1
Although the incidence of nonvertebral fractures was measured, it was not a specified efficacy endpoint. The number of patients reporting at least one incident nonvertebral fracture is tabulated by fracture location in Table 10 (below). […] At individual body sites, the number of fractures was insufficient for a meaningful statistical analysis.

postmenopausal women = experiment: Pharmacokinetic/pharmacodynamic sigmoid Emax models (spine BMD, femoral neck BMD, PICP); assay type: in vivo, human
Description: (§2) In order to explore the relationship between concentration and the effect on spine BMD, a pharmacokinetic/pharmacodynamic model was developed. This relationship was best described by a sigmoid Emax model with AUC50 estimated at 170 pg·hr/mL.
A pharmacokinetic/pharmacodynamic model was also developed for femoral neck BMD. The relationship was best described by a sigmoid Emax model with AUC50 estimated at 283 pg·hr/mL. […] Thus, the final pharmacodynamic model which included treatment group rather than systemic exposure, predicted the increase in hip BMD in a patient of average age (˜69 years), body weight (˜66 kg), and baseline NTX concentration (˜48 mmBCE/L) to be approximately 2.8% and 5.2% after 21 months of 20 μg/day and 40 μg/day therapy, respectively.
A pharmacokinetic/pharmacodynamic model was developed for the PICP response. […] Thus, LY333334 exposure was a less significant predictor of elevation in PICP concentrations than administered dose.

[3] = Post-hoc estimates of AUC from the pharmacokinetic model (systemic exposure); settings: human, in vivo, subcutaneous
Description: as §2

In the case of `CC[C@H](C)[C@H](NC(=O)[C@H](CCC(=O)O)NC(=O)[C@H](CO)NC(=O)[C@@H](NC(=O)[C@@H](N)CO)C(C)C)C(=O)N[C@@H](CCC(N)=O)C(=O)N[C@@H](CC(C)C)C(=O)N[C@@H](CCSC)C(=O)N[C@@H](Cc1cnc[nH]1)C(=O)N[C@@H](CC(N)=O)C(=O)N[C@@H](CC(C)C)C(=O)NCC(=O)N[C@@H](CCCCN)C(=O)N[C@@H](Cc1cnc[nH]1)C(=O)N[C@@H](CC(C)C)C(=O)N[C@@H](CC(N)=O)C(=O)N[C@@H](CO)C(=O)N[C@@H](CCSC)C(=O)N[C@@H](CCC(=O)O)C(=O)N[C@@H](CCCN=C(N)N)C(=O)N[C@H](C(=O)N[C@@H](CCC(=O)O)C(=O)N[C@@H](Cc1c[nH]c2ccccc12)C(=O)N[C@@H](CC(C)C)C(=O)N[C@@H](CCCN=C(N)N)C(=O)N[C@@H](CCCCN)C(=O)N[C@@H](CCCCN)C(=O)N[C@@H](CC(C)C)C(=O)N[C@@H](CCC(N)=O)C(=O)N[C@@H](CC(=O)O)C(=O)N[C@H](C(=O)N[C@@H](Cc1cnc[nH]1)C(=O)N[C@@H](CC(N)=O)C(=O)N[C@@H](Cc1ccccc1)C(=O)O)C(C)C)C(C)C` [LY333334], the “urinary N-telopeptide and urinary free deoxypyridinoline” value ([1]; 20-μg and 40-μg doses) was “Slightly delayed but significant increases”, the “serum PICP peak concentration above baseline” value ([1]; 20-μg group) was 33.7% and the “increase in serum BSAP concentration from baseline” value ([1]; 20-μg group, Month 12) was 28.8%. The “serum PICP compared with baseline” value ([1]; 20-μg group, Month 12) was “decreased compared with baseline”, the “urinary NTX percent change from baseline, peak” value ([1]; 20-μg group, Month 12) was “approximately 57%” and the “serum PICP peak concentration above baseline” value ([1]; 40-μg group) was 78.0%. The “urinary NTX percent change from baseline, peak” value ([1]; 40-μg group, Month 6) was “approximately 155%”, the “increase in serum BSAP concentration from baseline” value ([1]; 40-μg group, Month 12) was 59.3% and the “serum PICP compared with baseline” value ([1]; 40-μg group, Month 12) was “slightly decreased compared with baseline”. For the same compound, the “urinary NTX over baseline” value ([1]; 40-μg group, Month 12) was “approximately 118%”, the “bone marker levels after discontinuation” value ([1]; closeout visit) was “only serum PICP levels had returned to baseline by the closeout visit” and the “time of BSAP peak response after initiation of treatment” value (PICP, BSAP, NTX, DPD; 20 and 40 μg/day) was 6 months. For the same compound, the “time of maximum PICP” value (PICP, BSAP, NTX, DPD; 20 and 40 μg/day) was no more than 1 month, the “time of peak urinary DPD concentrations after initiation of treatment” value (PICP, BSAP, NTX, DPD; 20 and 40 μg/day) was 6 months and the “BSAP response in 40 μg/day group greater than 20 μg/day group” value (PICP, BSAP, NTX, DPD; 40 vs 20 μg/day) was 73%. For the same compound, the “DPD response in 40 μg/day group greater than 20 μg/day group” value (PICP, BSAP, NTX, DPD; 40 vs 20 μg/day) was 83%, the “NTX response in 40 μg/day group greater than 20 μg/day group” value (PICP, BSAP, NTX, DPD; 40 vs 20 μg/day) was 87% and the “PICP response in 40 μg/day group greater than 20 μg/day group” value (PICP, BSAP, NTX, DPD; 40 vs 20 μg/day) was 94%. For the same compound, the “minimum increase in PICP level in the entire study population” value (PICP, BSAP, NTX, DPD; about 1 month of therapy) was “at least 20 pM”, the “time of peak urinary NTX excretion” value (PICP, BSAP, NTX, DPD; last observation while on therapy) was 12 months and the “patients with at least one incident nonvertebral fracture: Ankle” value ([2]; 20 μg/day) was 1. For the same compound, the “patients with at least one incident nonvertebral fracture: Other” value ([2]; 20 μg/day) was 0, the “patients with at least one incident nonvertebral fracture: Radius” value ([2]; 20 μg/day) was 1 and the “patients with at least one incident nonvertebral fracture: Ribs” value ([2]; 20 μg/day) was 1. The “patients with at least one incident nonvertebral fracture: Total Patients” value ([2]; 20 μg/day) was 2, the “patients with at least one incident nonvertebral fracture: Ankle” value ([2]; 40 μg/day) was 0 and the “patients with at least one incident nonvertebral fracture: Other” value ([2]; 40 μg/day) was 1. For the same compound, the “patients with at least one incident nonvertebral fracture: Radius” value ([2]; 40 μg/day) was 0, the “patients with at least one incident nonvertebral fracture: Ribs” value ([2]; 40 μg/day) was 0 and the “patients with at least one incident nonvertebral fracture: Total Patients” value ([2]; 40 μg/day) was 1. For the same compound, the “treatment difference in proportion of patients having at least one incident nonvertebral fracture” value ([2]; placebo, 20 and 40 μg/day, p=0.670) was “no significant treatment difference”, the “increase in PICP concentration at 1 month as % of the maximum effect” value (postmenopausal women; 20 μg dose) was 70% and the “increase in femoral neck BMD as % of the maximum effect” value (postmenopausal women; 20 μg dose) was 56%. The “increase in spine BMD as % of the maximum effect” value (postmenopausal women; 20 μg dose) was 82%, the “increase in PICP concentration at 1 month as % of the maximum effect” value (postmenopausal women; 40 μg dose) was 85% and the “increase in femoral neck BMD as % of the maximum effect” value (postmenopausal women; 40 μg dose) was 67%. For the same compound, the “increase in spine BMD as % of the maximum effect” value (postmenopausal women; 40 μg dose) was 92%, the “AUC50, sigmoid Emax model for PICP response” value (postmenopausal women; PICP) was 239 pg·h/mL and the “AUC50, sigmoid Emax model for femoral neck BMD” value (postmenopausal women; femoral neck BMD) was 283 pg·h/mL. For the same compound, the “AUC50, sigmoid Emax model for spine BMD” value (postmenopausal women; spine BMD) was 170 pg·h/mL, the AUC ([3]; 20 ug) was 0.365 ng·h/mL and the AUC ([3]; 40 ug) was 0.576 ng·h/mL.

Source: US20050255537A1, “Method for monitoring treatment with a parathyroid hormone” (priority 1999, published 2005)
